System: patients with advanced solid tumors
Experiment: Phase Ia safety, tolerability, DLT/MTD (TRAEs graded by NCI-CTCAE v4.03)
Type: in vivo
Source text: This is a phase I clinical study (ClinicalTrials.gov identifier: NCT03544905), including a phase Ia study of oral CYH33 monotherapy in patients with advanced solid tumors, and a phase Ib study of oral CYH33 monotherapy focused on several specific tumors. […] The phase Ia study included dose-escalation stage and dose-expansion stage. […] The secondary outcomes also included evaluation of changes in PD biomarkers in response to CYH33 treatment (including proteomics of blood specimens at baseline and during treatment, immunocyte subpopulation ratios and molecular markers, cell free DNA in peripheral blood, and blood glucose). However, in compliance with the local human genetic resource regulations and procedures, peripheral blood samples were not obtained for PD biomarker analysis, therefore, only fasting blood glucose was obtained and used as a PD biomarker for CYH33 treatment. The exploratory objective was the relationship between the efficacy of CYH33 treatment and tumor biomarker status.
An accelerated titration design (ATD) and an mTPI-2 design were adopted to guide toxicity monitoring and dose escalation. The target DLT rate was 30%, with the acceptable toxicity probability interval of (0.25, 0.35). For the first two preset doses of 1 mg and 5 mg CYH33 in the ATD phase, if there were no grade ≥2 TRAEs during the DLT observation period, 100% dose escalation was allowed in the subsequent dose group. After entering the mTPI-2 phase, the SMC guidance was followed to determine the dose level, dosing frequency, and number of subjects in the next dose group, based on the previously obtained safety and PK data for that dose group. If necessary, it was permitted to add an additional dose level between two explored dose levels for further investigation.
During the phase Ia study, the safe and probably effective dose will be delivered to the expansion cohort to further investigate the safety, tolerability and efficacy of this dose level, while the dose escalation study can be continued simultaneously. If necessary, it is permitted to insert a new dose level between two explored dose levels for exploration. The subjects to be enrolled in the expansion cohort are patients with advanced solid tumors with PIK3CA gene mutations. When there are two or more dose groups at dose expansion simultaneously, the allocation ratio of the number of subjects in each dose group should be as close as possible to the ratio of ORR in each dose group. In principle, when the cumulative ORR at a certain dose level is <10%, the number of subjects in this dose group will be determined by the SMC. A total of approximately 60 patients are expected to be enrolled in the whole phase Ia study.
The secondary endpoints included preliminary efficacy assessments based on ORR, PFS, DoR, DCR, and clinical benefit rate, assessed per RECIST 1.1,PK parameters for CYH33 and its metabolite I27, and changes in PD biomarkers in response to CYH33 treatment.

COC(=O)Nc1cc(C(F)(F)F)c(-c2nc(N3CCOCC3)c3cc(CN4CCN(S(C)(=O)=O)CC4)cn3n2)cn1 [CYH33, methyl (5-(6-((4-(methylsulfonyl)piperazin-1-yl)methyl)−4-morpholinopyrrolo[2,1-f][1,2,4]triazin-2-yl)−4-(trifluoromethyl)pyridin-2-yl)carbamate]
Blood glucose increased, Grade ≥ 3 TRAE (30 mg QD, n = 12): 0 n (%)
Decreased appetite, Grade ≥ 3 TRAE (30 mg QD, n = 12): 0 n (%)
Decreased appetite, all-grade TRAE (30 mg QD, n = 12): 4 (33.3) n (%)
Diabetic ketosis, Grade ≥ 3 TRAE (30 mg QD, n = 12): 1 (8.3) n (%)
Diarrhea, Grade ≥ 3 TRAE (30 mg QD, n = 12): 0 n (%)
Diarrhea, all-grade TRAE (30 mg QD, n = 12): 2 (16.7) n (%)
Dizziness, Grade ≥ 3 TRAE (30 mg QD, n = 12): 0 n (%)
Electrocardiogram QT prolonged, Grade ≥ 3 TRAE (30 mg QD, n = 12): 0 n (%)
Face oedema, Grade ≥ 3 TRAE (30 mg QD, n = 12): 0 n (%)
Facial edema, all-grade TRAE (30 mg QD, n = 12): 4 (33.3) n (%)
Fatigue, Grade ≥ 3 TRAE (30 mg QD, n = 12): 0 n (%)
Fatigue, all-grade TRAE (30 mg QD, n = 12): 2 (16.7) n (%)
Generalized oedema, Grade ≥ 3 TRAE (30 mg QD, n = 12): 1 (8.3) n (%)
Grade ≥ 3 TRAEs in all patients (30 mg QD, n = 12): 7 (58.3) n (%)
Hyperglycemia, Grade ≥ 3 TRAE (30 mg QD, n = 12): 7 (58.3) n (%)
Hyperglycemia, all-grade TRAE (30 mg QD, n = 12): 11 (91.7) n (%)
Hyponatremia, all-grade TRAE (30 mg QD, n = 12): 4 (33.3) n (%)
Mouth ulceration, Grade ≥ 3 TRAE (30 mg QD, n = 12): 0 n (%)
Nausea, Grade ≥ 3 TRAE (30 mg QD, n = 12): 0 n (%)
Nausea, all-grade TRAE (30 mg QD, n = 12): 6 (50.0) n (%)
Peripheral edema, Grade ≥ 3 TRAE (30 mg QD, n = 12): 0 n (%)
Peripheral edema, all-grade TRAE (30 mg QD, n = 12): 4 (33.3) n (%)
Rash, Grade ≥ 3 TRAE (30 mg QD, n = 12): 0 n (%)
Rash, all-grade TRAE (30 mg QD, n = 12): 2 (16.7) n (%)
TRAEs leading to death (30 mg QD, n = 12): 0 n (%)
TRAEs leading to dose discontinuation (30 mg QD, n = 12): 1 (8.3) n (%)
TRAEs leading to dose interruption (30 mg QD, n = 12): 10 (83.3) n (%)
TRAEs leading to dose reduction (30 mg QD, n = 12): 0 n (%)
TRAEs occurring in ≥ 10% of patients (30 mg QD, n = 12): 12 (100) n (%)
Treatment-related serious adverse events (30 mg QD, n = 12): 1 (8.3) n (%)
Vomiting, all-grade TRAE (30 mg QD, n = 12): 3 (25.0) n (%)
Weight loss, all-grade TRAE (30 mg QD, n = 12): 4 (33.3) n (%)
White blood cell count decreased, Grade ≥ 3 TRAE (30 mg QD, n = 12): 0 n (%)
Blood glucose increased, Grade ≥ 3 TRAE (40 mg QD, n = 24): 0 n (%)
Decreased appetite, Grade ≥ 3 TRAE (40 mg QD, n = 24): 1 (4.2) n (%)
Decreased appetite, all-grade TRAE (40 mg QD, n = 24): 12 (50.0) n (%)
Diabetic ketosis, Grade ≥ 3 TRAE (40 mg QD, n = 24): 0 n (%)
Diarrhea, Grade ≥ 3 TRAE (40 mg QD, n = 24): 1 (4.2) n (%)
Diarrhea, all-grade TRAE (40 mg QD, n = 24): 7 (29.2) n (%)
Dizziness, Grade ≥ 3 TRAE (40 mg QD, n = 24): 1 (4.2) n (%)
Electrocardiogram QT prolonged, Grade ≥ 3 TRAE (40 mg QD, n = 24): 0 n (%)
Face oedema, Grade ≥ 3 TRAE (40 mg QD, n = 24): 1 (4.2) n (%)
Facial edema, all-grade TRAE (40 mg QD, n = 24): 4 (16.7) n (%)
Fatigue, Grade ≥ 3 TRAE (40 mg QD, n = 24): 1 (4.2) n (%)
Fatigue, all-grade TRAE (40 mg QD, n = 24): 6 (25.0) n (%)
Generalized oedema, Grade ≥ 3 TRAE (40 mg QD, n = 24): 0 n (%)
Grade ≥ 3 TRAEs in all patients (40 mg QD, n = 24): 19 (79.2) n (%)
Hyperglycemia, Grade ≥ 3 TRAE (40 mg QD, n = 24): 17 (70.8) n (%)
Hyperglycemia, all-grade TRAE (40 mg QD, n = 24): 23 (95.8) n (%)
Hyponatremia, all-grade TRAE (40 mg QD, n = 24): 2 (8.3) n (%)
Mouth ulceration, Grade ≥ 3 TRAE (40 mg QD, n = 24): 1 (4.2) n (%)
Mouth ulceration, all-grade TRAE (40 mg QD, n = 24): 5 (20.8) n (%)
Nausea, Grade ≥ 3 TRAE (40 mg QD, n = 24): 0 n (%)
Nausea, all-grade TRAE (40 mg QD, n = 24): 9 (37.5) n (%)
Peripheral edema, Grade ≥ 3 TRAE (40 mg QD, n = 24): 4 (16.7) n (%)
Peripheral edema, all-grade TRAE (40 mg QD, n = 24): 8 (33.3) n (%)
Rash, Grade ≥ 3 TRAE (40 mg QD, n = 24): 1 (4.2) n (%)
Rash, all-grade TRAE (40 mg QD, n = 24): 6 (25.0) n (%)
TRAEs leading to death (40 mg QD, n = 24): 0 n (%)
TRAEs leading to dose discontinuation (40 mg QD, n = 24): 2 (8.3) n (%)
TRAEs leading to dose interruption (40 mg QD, n = 24): 19 (79.2) n (%)
TRAEs leading to dose reduction (40 mg QD, n = 24): 5 (20.8) n (%)
TRAEs occurring in ≥ 10% of patients (40 mg QD, n = 24): 23 (95.8) n (%)
Treatment-related serious adverse events (40 mg QD, n = 24): 4 (16.7) n (%)
Vomiting, all-grade TRAE (40 mg QD, n = 24): 6 (25.0) n (%)
Weight loss, all-grade TRAE (40 mg QD, n = 24): 9 (37.5) n (%)
White blood cell count decreased, Grade ≥ 3 TRAE (40 mg QD, n = 24): 1 (4.2) n (%)
DLT rate (40 mg dose level, 1 out of 6 DLT evaluable patients): 16.7%
patients with DLT: grade 3 hyperglycemia (40 mg, dose-escalation stage (19 patients)): 1
patients with DLT: grade 3 hyperglycemia and grade 3 nausea (60 mg, dose-escalation stage (19 patients)): 2
Blood glucose increased, Grade ≥ 3 TRAE (1–20 mg QD, n = 10): 0 n (%)
Decreased appetite, Grade ≥ 3 TRAE (1–20 mg QD, n = 10): 0 n (%)
Decreased appetite, all-grade TRAE (1–20 mg QD, n = 10): 3 (30.0) n (%)
Diabetic ketosis, Grade ≥ 3 TRAE (1–20 mg QD, n = 10): 0 n (%)
Diarrhea, Grade ≥ 3 TRAE (1–20 mg QD, n = 10): 0 n (%)
Diarrhea, all-grade TRAE (1–20 mg QD, n = 10): 3 (30.0) n (%)
Dizziness, Grade ≥ 3 TRAE (1–20 mg QD, n = 10): 0 n (%)
Electrocardiogram QT prolonged, Grade ≥ 3 TRAE (1–20 mg QD, n = 10): 1 (10.0) n (%)
Face oedema, Grade ≥ 3 TRAE (1–20 mg QD, n = 10): 0 n (%)
Facial edema, all-grade TRAE (1–20 mg QD, n = 10): 0 n (%)
Fatigue, Grade ≥ 3 TRAE (1–20 mg QD, n = 10): 0 n (%)
Fatigue, all-grade TRAE (1–20 mg QD, n = 10): 1 (10.0) n (%)

From PMC9669016, “First-in-human phase Ia study of the PI3Kα inhibitor CYH33 in patients with solid tumors” (Nature Communications, 2022)
